Source: patent publication US20190327975A1, “AN ANTIMICROBIAL COMPOSITION” (Conopco, Inc., d/b/a UNILEVER, priority 2016, published 2019)

Text: More particularly, silver ion solubility [Ag+], a value given in mol/L may be calculated using the formula: […]

Structure (SMILES): [Cl][Ag] [Silver chloride]
- Silver Ion Solubility [Ag+]: 13 µM
